For `Cc1ccccc1-c1c(NC(=O)Nc2c(C)cccc2C)c(=O)oc2c(F)cc(F)cc12`, the melting point (commonly the temperature, or range, at which the solid turns liquid) was in the range of 221 to 222 °C. The figure for `COc1ccc2cc(C(C)=CC(=O)O)cc(F)c2c1` is 214 to 217 °C. Then `COCc1cc(O)nc(C)n1`, with 168 to 170 °C; and `CCc1nc2c(N)nc3ccccc3c2n1CCS(C)(=O)=O`, with 222 to 225 °C. The figure for `O=C(NC(Cc1ccc(OCc2ccccc2)cc1)C(=O)O)c1cn2cc(-c3ccncc3)ccc2n1` (stereo not drawn) is 268 °C; for `O=C(O)CNC(=O)c1ccc(-c2ccc3nnn(Cc4ccc5ncccc5c4)c3n2)cc1F` it is 252 to 254 °C. In turn, `CC(C)(C)OC(=O)c1cccc(O)c1` showed a melting point of 94 to 96 °C. Then `COc1ccc2c3c(c(=O)oc2c1)CN(Cc1ccc(Cl)cc1)CC3`, with 140 to 142 °C; and `CC(=O)c1cc2c(s1)C(C)(C)CCC2(C)C`, with 53 to 55 °C; and `CCCc1c(COc2ccc(C(=O)CCCCCCc3nnn[nH]3)cc2)ccc(C(C)=O)c1O`, with 134 to 137 °C. The figure for `COC1CCN(C2CCN(c3ccc(N)cc3C#N)CC2)CC1` is 125 to 130 °C; for `CC(C)C(=O)N(Cc1ccccc1)c1nnn(C)n1` it is 65 °C; for `CCOC(=O)c1ncc2[nH]c3ccc(SC)cc3c2n1` it is 265 to 266 °C.

As to `Cc1ccc(Oc2ccccc2NN)c(O)c1`, the melting point lay within 108 to 110 °C. The compound `CCc1n[nH]c(CC)c1CCCCCOc1ccc(OC)cc1Cl` yielded a melting point of 80 to 83 °C. The figure for `Cc1nc(C=NN(C)C)c2n1-c1ccc(Cl)cc1C(c1ccccc1Cl)=NC2` is 238 to 242 °C; for `Cc1cc2c(cc1C)-n1ccnc1C=C(c1ccc(-n3c(C)nc4cnccc43)cc1)N2` it is 193 to 195 °C.

For the compound `CCN(c1ccccc1)c1nc(=O)c2cccnc2s1`, the melting point is 174 to 175 °C. The figure for `Cc1nc2c(C#N)cnn2c2c1CCN2C(C)(C)C` is 220 to 224 °C; for `CC1(C)Oc2ccc(C#N)cc2C(OC(=O)C2CCCN2S(=O)(=O)c2cccc([N+](=O)[O-])c2)C1Br` (stereo not drawn) it is 171 to 174 °C. `CC(C)(O)[C@@H](N)c1ccc2ccccc2c1` came in with a melting point of 77 to 78 °C. Then `COc1ccccc1[C@@]1(O)[C@H](O)CC(c2ccccc2)(c2ccccc2)[C@@H]2CN(C(=O)Cc3ccccc3N(C)C)C[C@@H]21` (racemic), with 175 to 177 °C; and `O=C1C2CC3CC1CC(c1cc(Br)ccc1OCc1ccccc1)(C3)C2`, with 163 to 165 °C. The figure for `CC(C)Nc1nc(NC(C)C)nc(OC(F)F)n1` is 81 to 82 °C; for `COCCOc1ccc(CCCOC(=O)NS(=O)(=O)c2ccc(Cl)cc2)c(Oc2ncc(C(F)(F)F)cc2Cl)c1` it is 147 to 150 °C; for `CCc1ccc2c(c1)C=Cc1cc(C)ccc1C2c1cn(-c2ccc(SCC(=O)O)nn2)c(=O)[nH]c1=O` (stereo not drawn) it is 225 to 230 °C.

In turn, `CCOCOC(CCC(C(=O)NC)C(C)C(O)c1ccccc1)c1ccc(F)cc1` (stereo not drawn) gave a melting point of 91 to 92 °C.

Compound `Nc1ccc(C(=O)CCCCl)cc1[N+](=O)[O-]` came in with a melting point of 150 °C. Then `[N-]=[N+]=C1C(=O)Nc2ccc(F)cc21`, with 209 to 210 °C. The figure for `CCC=C(Cc1ccc(Cl)cc1Cl)n1cncn1` is 127 °C; for `OCc1cnc2sc3c(n12)CCCCC3` it is 145 to 146 °C; for `CS(=O)(=O)N1CCCn2c(nc3c(N)nc4c(c32)CCCC4)C1` it is 270 to 272 °C. As for `CCC(=O)C1=C(O)CC(c2ccc3c(c2)CCCC3)CC1=O` (stereo not drawn), the melting point is 87 °C.

`CCN(CC)C(=O)Nc1c(C)c(C)c2c(c1C)C(c1ccc(C(C)C)cc1)CO2` (stereo not drawn): the melting point was 79 to 81 °C. Then `Cc1c(CC(=O)O)c2ccccc2n1-c1cc(Cl)nc(Cl)n1`, with 205 to 207 °C; and `Cc1sc(-c2ccccc2)nc1COc1ccc(C=O)cc1`, with 118 to 119 °C; and `CC1(c2cc(-c3cccc(C=C4SC(N5CCCC5)=NC4=O)c3)ccc2O)CCCCC1`, with 278 to 280 °C. The figure for `COc1ccc(-c2nc3cnncc3[nH]2)c(OCC#N)c1` is 268 °C. The figure for `C[C@@H](n1cnc2cc(-c3ccc(Cl)cc3)sc2c1=O)[C@](O)(Cn1cncn1)c1ccc(F)cc1F` is 158 to 160 °C; for `COc1ccc(-c2cc3ncc(C#N)c(Nc4ccc(Sc5nccn5C)c(Cl)c4)c3cc2OC)cc1` it is 227 to 229 °C; for `C=Cc1ccc(OC)cc1C1C(C(=O)OC)=C(C)NC(C)=C1C(=O)OC` it is 141 to 143 °C.

As for `COCCNC(=O)Cn1nc(-c2ccccc2O)nc1-c1ccccc1O`, the melting point lay within 184 to 186 °C. Then `Cc1cc(-c2cc(O)c(SCCc3ccccc3)c(=O)o2)ccc1OCc1ccccn1`, with 75 to 77 °C. Then `C=CCOC(=O)NS(=O)(=O)CCc1cc(OCCCC)nn1Cc1ccc(Cl)cc1Cl`, with 94 to 95 °C. `NC(=S)CN1CCCC1=S` gave a melting point of 154 to 156 °C. `COc1ccc(-c2cc(-c3nc(C)cs3)c(=O)n(C)c2-c2ccnnc2)cc1`: the melting point amounted to 271 °C.

On to `O=C(O)Cc1ccc(Oc2ccc(I)cc2)cc1`, for which the melting point lay in the range of 148 to 150 °C.

In turn, `Cc1cn(N=Cc2cc(C(C)(C)C)c(O)c(C(C)(C)C)c2)cn1` registered a melting point of 150 to 151 °C. As to `CC(C)CC(NC(=O)C(NCc1ccccc1)C(C)C)C(=O)NC(CCCCNC(=O)OCc1ccccc1)C(=O)Oc1cccc2ccccc12` (stereo not drawn), the melting point was 153 to 156 °C. The figure for `CSC1=CC2=CN(O)NN2C(SC)=N1` is 275 to 278 °C.

For `COc1ccc(CNCCCOc2ccc(NC(=O)c3cccc4c(=O)c5ccccc5[nH]c34)cc2)cc1OC`, the melting point is 138 to 139 °C. Compound `Cc1ccc(C(=O)NCCCCN2CCN(C(c3ccccc3)c3ccccc3)CC2)c(O)n1` registered a melting point of 213 to 214 °C. The figure for `CCNc1nc(C)c(-c2ccnc(Nc3ccc(N4CCN(C(C)=O)CC4)cc3)n2)s1` is 208 to 209 °C; for `O=c1c2ccccc2nnn1CCN1CC=C(c2c[nH]c3ccccc23)CC1` it is 230 °C; for `COc1cc2c(c(OC)c1)C(=O)CCC2` it is 58 to 61 °C. The compound `CC(=O)N1CCN=C1Nc1cc(C)nn1-c1ccccc1` gave a melting point of 153 to 162 °C. The figure for `CCN(CC)c1ccc(N2C[C@H](CNC(=O)c3ccc(Cl)s3)OC2=O)cc1` is 181 °C; for `CNC(=O)c1c(NC(=O)c2cc(C(F)(F)F)nn2-c2ncccc2Cl)ccc2ncccc12` it is 210 to 211 °C. The figure for `Cc1cn2cccc(OCc3c(Cl)ccc(S(=O)(=O)N4CCC[C@H]4C(=O)NCCCNC(=O)c4ccc(C=NN)cc4)c3Cl)c2n1` is 120 to 125 °C. Then `CCOC(=O)Cc1cc(C)c(C(=O)c2ccc(C)cc2)n1C`, with 90 to 93 °C.

`CCCCc1[nH]c(=O)c(C#N)cc1C(C)=O` yielded a melting point of 195 to 197 °C. The figure for `CC(C)(C)OC(=O)C1(O/N=C(\C(=O)O)c2csc(NC(c3ccccc3)(c3ccccc3)c3ccccc3)n2)CC1` is 157 °C; for `CC(C)CN(Cc1ccccc1)c1ncnc2nc[nH]c12` it is 160 to 162 °C; for `COc1cc(OC)nc(NC(=O)NS(=O)(=O)c2nccn2-c2nn(C)cc2Cl)n1` it is 164 to 165 °C. The figure for `CON=Cc1ccc(N2C(=O)C(O)=C(C(=O)c3ccc(OC)cc3)C2c2ccccc2)cc1` (stereo not drawn) is 226 to 229 °C. Then `CCCCC(C(=O)OCC)(C(=O)OCC)c1nc(C)nc2c1c(SC)nn2-c1c(Cl)cc(Cl)cc1Cl`, with 148 to 150 °C; and `C#Cc1c2c3c(cccc3n1C)C1CC(NC(=O)N(CC)CC)CN(C)C1C2` (stereo not drawn), with 126 °C. Compound `NC(=O)c1ccc2c(c1)S(=O)(=O)N=CN2C1CC1` gave a melting point of 278 to 281 °C. The figure for `CCC(=O)c1ccc(OCCCCl)cc1` is 41 to 43 °C. Then `ON=C(Cl)c1ccccc1`, with 50 to 51 °C. The figure for `OCCCCCCCCCCCOc1ccc(O)cc1` is 99 to 100 °C; for `c1csc(-c2cc(-c3cccs3)ncn2)c1` it is 146 °C. Take `COC(=O)c1ccc(Cc2cn(C)c3ccc(NC(=O)OC4CCCC4)cc23)c(OC)c1`: the melting point was 134 to 135 °C.

Consider `CC(=O)OCC(=O)Nc1cccc(NC(=O)COC(C)=O)c1C#N`, for which the melting point was 151 to 153 °C. In the case of `CC(C)Oc1cc(-n2nc(C(C)(C)C)oc2=O)ccc1F`, the melting point lay within 72.5 to 74 °C.

`CS(=O)c1ccc(C(=O)CCCCC#N)cc1` (stereo not drawn) yielded a melting point of 89.5 to 91.5 °C. For the compound `S=c1cc(-c2cnccn2)ss1`, the melting point amounted to 196 °C. Then `O=C(N[C@@H](CO)C(=O)NCCc1ccccc1)c1ccc(C(=O)c2cccnc2)cc1`, with 85 to 90 °C.

Consider `O=C(NCC1(c2ccccc2)CCCCC1)Nc1ccc(F)cc1F`, for which the melting point is 163 to 165 °C. Then `CC1(c2ccccc2)OCC(=O)N(CCCN2C(=O)c3ccccc3C2=O)c2ccc(Cl)cc21` (stereo not drawn), with 151 to 153 °C; and `CC1CCCCC1N(Cc1ccc(C(=O)NC(C)(C)C(=O)O)cc1)S(=O)(=O)c1ccc(Cl)cc1` (stereo not drawn), with 121 to 122 °C; and `O=C(O)C=Cc1ccc(Oc2nsnc(Cl)c2=O)cc1`, with > 280 °C.

In the case of `CN(C)C(=O)N(Cc1ccccc1)C(=O)c1cccc(-c2nc(=O)c3ccccc3s2)n1`, the melting point was in the range of 222 to 224 °C. Then `CC(C)(S)CNC(=O)COCC(=O)O`, with 81 to 82 °C; and `CNC=C(C(=O)C=Cc1ccc(Cl)cc1)C(=O)OC`, with 114 to 116 °C. The figure for `CC(C)C1(C)NC(c2ncc(Br)cc2C(=O)O)=NC1=O` (stereo not drawn) is 206 to 208 °C. Then `CCOCc1nc2c(N)nc3cc(Br)ccc3c2n1CCCCNC(=O)NC(C)C`, with 211 °C; and `C[Si](C)(C)CCCCNC(=O)n1cc(F)c(=O)[nH]c1=O`, with 129 to 132 °C.

For the origin of these results see a melting point compilation (Tetko et al.; mined from patent text by program, amines drawn as free bases though some values may be those of a salt).
